“And” between values parts separate entries of the source, which are not always exact repeats. Equal values may be shown once. Bounds are passed on as bounds.

One series concerns HepG2 cells. The series is described as follows: MTT cytotoxicity assay on HepG2 cells. Format: cell-based. Conditions: Homo sapiens; for cytotoxicity at 100 ppm: 48 h, 100 p.p.m (μg/mL), read-out: % Death Rate at 100 p.p.m (μg/mL) HepG2; for IC50: HepG2, 48 h. Here is the method: MTT-based cell viability assay was carried out to evaluate the antiproliferation potential of the target compounds on HCC cell lines (HepG2 and Huh7). The half maximal inhibitory concentration (IC50) values were calculated against DMSO non-treated HepG2 cells (negative control) and Dox-treated HepG2 cells (positive control). The assay was conducted using 3-(4, 5-di-MethylThiazol-2-yl)-2,5-diphenyl Tetrazolium bromide (MTT) to test cell viability, according to the method described by Mosmann with minor changes. The yellow MTT is reduced in the viable cells to purple formazan. The insoluble formazan is solubilized by DMSO to colored solution measured spectrophotometrically. Briefly, cells were seeded in a 96-well plate at density of 1 × 10^4 cells/well for 24 h in 5% CO2 incubator at 37 °C to allow their adherence. […] After incubation, 20 μL of a 5 mg/mL MTT solution were mixed with the contents of each well, and the plate was incubated for another 4 h. Then, the medium was suctioned, and the wells were washed with PBS. After 2 h of drying, 200 μL of DMSO was added to each well. The plate was set on a shaker to dissolve the formazan crystals. Then, the absorbance was measured spectrophotometrically at 570 nm with a reference wavelength of 630 nm using ELX800 UV universal microplate reader (BioTek Instruments Inc., VT, Santa Clara, CA, USA).
All experiment conditions were tested in three replicates. The % cell viability was calculated from the following equation: (mean absorbance of treated sample/mean absorbance of negative control sample) × 100. The % death rate = 100 -% cell viability, and the inhibitory concentration of 50% (IC50) was measured from the exponential curve of viability against concentration (dose–response curve).

Series [1] can be described thus: In vitro safety/cell viability MTT assay on normal RPE1 cells. Conditions: human, RPE1 cells (noncancerous), normal RPE1 cells, MTT. The series is classed as cell-based, human. On the technique in general: Formazan colour is commonly taken as a measure of viable cells.
A further series relates to RPE1 cells. The description is as above. Format: cell-based, human. Conditions: RPE1, MTT, in words.
The subject of another series is mice. The series is described as follows: In vivo acute (14-day) oral toxicity study. The note with it: for S.ALT / S.AST / S.Creatinine / S.D.Bilirubin / S.T.Bilirubin / S.Urea: 14 days after single dose, doxorubicin 15 mg/kg I.P; for S.ALT / S.AST / S.Creatinine / S.D.Bilirubin / S.T.Bilirubin / S.Urea / Histopathology of liver and kidney tissues (H and E) versus control groups / Kidney histology (H and E photomicrographs) / Liver histology (H and E photomicrographs): compounds 250 mg/kg oral; for Histopathology of liver and kidney tissues (H and E) versus control groups / Kidney histology (H and E photomicrographs) / Liver histology (H and E photomicrographs) / Physical or abnormal changes (body weight, skin, fur, eyes, behavior, overall appearance): 14 days; for Histopathology of liver and kidney tissues (H and E) versus control groups / Kidney histology (H and E photomicrographs) / Liver histology (H and E photomicrographs): Dox 15 mg/kg i.p.; for Survival over the treatment period (14 days) / Physical or abnormal changes (body weight, skin, fur, eyes, behavior, overall appearance): single acute oral dose of 250 mg/kg. An excerpt: GPower 3.0.10 software was used to estimate the sample size needed for the experiment and the number of mice per group but, according to the Organization for Economic Cooperation and Development (OECD) Test Guidelines No. 407 (OECD, 2008 and updated 2017) and under the International Academy of Science’s Guide for the Care and Use of Laboratory Animals, as well as the ARRIVE guidelines, to use the least number of mice per group for the acute single dose oral toxicity test.
Animals were divided randomly into nine groups (5 animals per group). Before the experiment, the body weight (BW) of all mice was recorded. All mice were made to fast for 24 h and treated once (day zero) then carefully monitored for 14 days.
Normal control group: mice received saline orally once;
Negative control group: mice received vehicle (DMSO) orally once;
Positive control group: mice were injected with Dox (15 mg/kg BW, i.p.) once.
Isatin-sulfonamide-derivative-compound-treated groups (2a, 3a, 3d and 4b, 4c and 4d) of mice received 250 mg/kg BW of each orally once.
The animals’ BWs were recorded at the end of the 14 days of observation. Blood samples were collected from the retro-orbital plexus and allowed to clot. Sera were prepared by centrifugation at 4000 rpm for 15 min and then kept frozen at − 80 °C for liver and kidney function tests (LFTs and KFTs). Thereafter, mice were deprived of food overnight, euthanized, and sacrificed by cervical dislocation. Liver and kidney tissues were collected, washed with ice-cold saline, and weighed. Excised weighed livers and kidneys were fixed in a suitable buffer for histological examination.
Liver and kidney tissues were fixed in 10% neutral buffered formaldehyde overnight and then embedded in paraffin, […] in serial grades of alcohols, cleared in xylene, and were subjected to […], where 4 μm thick tissue sections were cut by rotatory microtome. Tissue sections were stained with hematoxylin and eosin (H and E) for histological examination using full HD light microscopic imaging system (Leica Microsystems GmbH, Wetzlar, Germany). Standard procedures for sample fixation and staining were done as previously described.

For another series, the system named is EGFR. Briefly: EGFR level in HepG2 cell lysate (ELISA). The note with it: HepG2 treated at IC50, 48 h. Format: cell-based, human. Here is the method: (§1) As previously described, with little modification, HepG2 cells were cultured in T25 flask until they reached 30% confluency. […] After treatment, cells were washed by PBS, trypsinized and centrifuged at 10,000 rpm. The formed pellets were washed twice with PBS and lysed in 1 mL ice-cold radio immunoprecipitation assay (RIPA) lysis buffer (50 mM Tris-HCl, pH 8.0, 150 mM NaCl, 1% Triton X-100, 0.5% sodium deoxycholate, 0.1% sodium dodecyl sulfate) and kept on ice for 20 min. Then, the mixture was centrifuged at 15,000 rpm for 15 min to remove any cell debris. The cell lysate was aliquoted and stored at −80 °C for determination of protein using Pierce BCA Protein Assay Kit (Thermo Fisher Scientific, Waltham/Boston, USA) according to manufacturer’s recommendations and determination of other biochemical parameters including EGFR, urokinase Plasminogen Activator (uPA), B-Cell Lymphoma-2 (Bcl-2), heparanase, and oxidative stress markers (glutathione; GSH and malonaldehyde; MDA).
(§2) Levels of EGFR [37] and heparanase in cell lysate were investigated using commercially available enzyme-linked immunosorbent assay (ELISA) kits supplied by Abcam (Cat. No. ab269558, ab256401, respectively). Levels of uPA [39] were measured using ELISA kit supplied by Creative Diagnostics (New York, USA, Cat. No. DEIA1630). Bcl-2 levels were determined using ELISA kit supplied by Zymed Laboratories, Carlsbad, California (Cat. No. 99-0042). Briefly, standards and samples were added to corresponding 96-well plate coated with suitable antibody. After the washing step, biotinylated anti-human antibody was added to each well. After washing away unbound biotinylated antibody, horseradish peroxidase (HRP)-conjugated streptavidin was pipetted into each well. A peroxidase substrate solution was added to all wells, after washing, and the color developed was proportionate to the amount of EGFR bound. Finally, the stop solution was added and the color intensity was measured at 450 nm.
Background: In an ELISA, binding on a coated surface is turned into a signal by an enzyme label.

Series [2] deals with B-Cell Lymphoma-2 (Bcl-2). The series is described as follows: Bcl-2 level in HepG2 cell lysate (ELISA). The series is classed as cell-based, human. The note with it: HepG2 treated at IC50, 48 h. The procedure:
as §1, §2

The test system of another series is glutathione (GSH). The series is described as follows: GSH level in HepG2 cell lysate (DTNB method). Format: cell-based, human. Conditions: HepG2 treated at IC50, 48 h. Here is the method: as §1
Glutathione levels were determined using GSH Biodiagnostics kit (Cairo, Egypt). The method is based on the reduction of 5,5′dithiobis (2-nitrobenzoic acid) (DTNB) with glutathione (GSH) to produce a yellow compound. The reduced chromogen is directly proportional to GSH concentration and its absorbance was measured at 405 nm.

For the molecule `Cc1ccc(C(=O)CC2(O)C(=O)Nc3ccc(S(=O)(=O)N4CCCCC4)cc32)cc1` (stereo not shown) [Compound 3a, 3-hydroxy-3-(2-oxo-2-(p-tolyl)ethyl)-5-(piperidin-1-ylsulfonyl)indolin-2-one], in the series on HepG2 cells, the cytotoxicity at 100 ppm was 70.1% and the IC50 (in general, the point on the concentration scale where inhibition reaches its midpoint) is around 16.8 µM. In series [1], the half-maximal cytotoxic concentration (CC50) (as a rule, the concentration that lowers cell viability or growth by half) at 48 h was above 100 µM and the viability (as a rule, a per cent measure of how many cells are alive, often set against a control) at 48 h, 100 p.p.m (μg/mL) came to 74%. In the series with RPE1 cells, the “Effect towards the noncancerous cell line (RPE1)” value is on record as “non-cytotoxic effect”. Besides, in the series on mice, the S.ALT was 27.05 ± 0.81 ^^ U/L, the S.AST is 36.78 ± 0.33 ^^ U/L, the S.Creatinine is listed as 0.82 ± 0.03 ^^ mg/dL and the S.D.Bilirubin is listed as 0.16 ± 0.002 ^^ mg/dL. In the series on mice, the S.T.Bilirubin is recorded as 0.65 ± 0.026 ^^ mg/dL; the S.Urea is on record as 51.25 ± 0.36 ^^ mg/dL; the “Histopathology of liver and kidney tissues (H and E) versus control groups” value (“Histopathology … (H and E) versus control groups” for short) is “no differences in the hepatic or renal tissue structures”; the “Kidney histology (H and E photomicrographs)” value (“Kidney histology” for short) was “intact well-organized histological features of renal parenchyma”. Further, in the series with mice, the “Liver histology (H and E photomicrographs)” value (shortened to “Liver histology”) was “no inflammatory cell infiltrates”; the “Survival over the treatment period (14 days)” value is on record as “survived”; the “Physical or abnormal changes (body weight, skin, fur, eyes, behavior, overall appearance)” value is given as “No physical or abnormal changes were observed”. Moreover, the “EGFR level in cell lysate” value in the series on EGFR was 42 ± 2.3 pmol/mg protein and 42 ± 2.3 ^a*^,b* pmol/mg protein. In addition, the “Bcl-2 level in cell lysate” value in series [2] was 4.2 ± 0.1 nmol/mg protein and 4.2 ± 0.10 ^a*^,b* nmol/mg protein. Besides, the “GSH level in cell lysate” value with glutathione (GSH) came to 1.6 ± 0.7 µmol/mg protein.

As to `CC(=O)Nc1ccc(C(=O)C=C2C(=O)Nc3ccc(S(=O)(=O)N4CCCCC4)cc32)cc1` [Compound 4b, N-(4-(2-(2-oxo-5-(piperidin-1-ylsulfonyl)indolin-3-ylidene)acetyl)phenyl)acetamide], in the series with HepG2 cells, the cytotoxicity at 100 ppm worked out at 94.2% and the 50% inhibitory concentration (IC50) is around 44.7 µM. In series [1], the half-maximal cytotoxic concentration (CC50) at 48 h is above 100 µM and the viability at 48 h, 100 p.p.m (μg/mL) was determined as 66.4%. For the same molecule, the “Effect towards the noncancerous cell line (RPE1)” value in the series on RPE1 cells is reported as “non-cytotoxic effect”. In addition, in the series with mice, the S.ALT is 27.95 ± 0.34 ^^ U/L, the S.AST is given as 35.18 ± 0.47 ^^ U/L, the S.Creatinine is listed as 0.88 ± 0.06 ^^ mg/dL and the S.D.Bilirubin was 0.17 ± 0.001 ^^ mg/dL. For the same molecule, in the series with mice, the S.T.Bilirubin is recorded as 0.70 ± 0.013 ^^ mg/dL; the S.Urea was 62.60 ± 3.64 ^^ mg/dL; the “Histopathology … (H and E) versus control groups” value was “no differences in the hepatic or renal tissue structures”; the “Kidney histology” value is recorded as “almost intact histological features of renal parenchyma”. In the series with mice, the “Liver histology” value is on record as “apparently intact hepatocytes”; the “Survival over the treatment period (14 days)” value is reported as “survived”; the “Physical or abnormal changes (body weight, skin, fur, eyes, behavior, overall appearance)” value is given as “No physical or abnormal changes were observed”. Besides, in the series on EGFR, the “EGFR level in cell lysate” value is 87.49 ± 3.4 ^a*^,b* pmol/mg protein. The “Bcl-2 level in cell lysate” value in series [2] was 2.5 ± 0.04 nmol/mg protein and 2.5 ± 0.04 ^a,b* nmol/mg protein. For the same molecule, in the series with glutathione (GSH), the “GSH level in cell lysate” value is reported as 1.1 ± 0.7 µmol/mg protein.

`COc1cccc2c1C(=O)c1c(O)c3c(c(O)c1C2=O)C[C@@](O)(C(=O)CO)C[C@@H]3O[C@H]1C[C@H](N)[C@H](O)[C@H](C)O1` [Doxorubicin, reference compound]: in the series on HepG2 cells, the cytotoxicity at 100 ppm amounted to 100% and the IC50 was found to be 21.6 ± 0.81 µM. Further, in the series with mice, the S.ALT is 52.97 ± 0.92 *^,# U/L, the S.AST is given as 46.93 ± 0.30 *^,# U/L, the S.Creatinine was 1.57 ± 0.02 *^,# mg/dL and the S.D.Bilirubin is listed as 0.36 ± 0.026 *^,# mg/dL. In addition, in the series with mice, the S.T.Bilirubin worked out at 1.45 ± 0.072 mg/dL; the S.Urea is given as 83.27 ± 0.95 *^,# mg/dL; the “Histopathology … (H and E) versus control groups” value was “hepatic and renal pathology were obvious”; the “Kidney histology” value is “dilatation of the cortical tubular segments”. Moreover, the “Liver histology” value in the series on mice is given as “hepatocellular necrotic changes”. Also, the “EGFR level in cell lysate” value in the series with EGFR was 27.5 ± 1.7 ^a* pmol/mg protein. In addition, in series [2], the “Bcl-2 level in cell lysate” value was 1.7 ± 0.10 ^a* nmol/mg protein. Also, the “GSH level in cell lysate” value with glutathione (GSH) is 0.8 ± 0.1 ^a* µmol/mg protein.

Values taken from article PMC8945686, “Anticancer Effects with Molecular Docking Confirmation of Newly Synthesized Isatin Sulfonamide Molecular Hybrid Derivatives against Hepatic Cancer Cell Lines” (Biomedicines, 2022).
